What was measured:
Assay type in all cases: cell-based
E. coli DH5α = experiment: Antibacterial activity: MIC and growth curve against E. coli DH5α in 96-well plate; settings: minimal inhibitory concentration against E. coli DH5α; 96-well plate, 5×10^5 CFU/mL, 37° C., judged after 8 h
How it was run: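 Log-phase DH5α (OD600 about 0.5, 37° C, 185 rpm in LB) was pelleted, resuspended in fresh LB and seeded at 5×10^5 CFU/mL with recombinant protein at 50, 25 and 12.5 μg/mL (two-fold series), in triplicate. Plates were shaken at 175 rpm, 37° C, and OD600 was read every 30 min. MIC was the lowest concentration with no growth.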

E. coli BL21 = experiment: MIC against Gram-negative bacteria: E. coli BL21; settings: for MIC against E. coli BL21: 96-well plate, 37° C., 10 h
How it was run: (§1)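 First, colonies from LB agar were grown in LB at 37° C, 185 rpm, to McFarland turbidity 0.5, then centrifuged and resuspended in fresh LB. Next, wells received 5×10^5 CFU/mL bacteria plus two-fold serially diluted EGF domain protein (triplicate). Finally, plates were shaken at 37° C and the no-growth concentration taken as MIC.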

Pseudomonas aeruginosa = experiment: MIC against Gram-negative bacteria: Pseudomonas aeruginosa; settings: for MIC against P. aeruginosa: 96-well plate, 37° C., 10 h
How it was run: as §1

Klebsiella pneumonia = experiment: MIC against Gram-negative bacteria: Klebsiella pneumonia; settings: for MIC against K. pneumonia: 96-well plate, 37° C., 10 h
How it was run: as §1

Enterobacter cloacae = experiment: MIC against Gram-negative bacteria: Enterobacter cloacae; settings: for MIC against E. cloacae: 96-well plate, 37° C., 10 h
How it was run: as §1

Aeromonas hydrophila = experiment: MIC against Gram-negative bacteria: Aeromonas hydrophila; settings: for MIC against A. hydrophila: 96-well plate, 37° C., 10 h
How it was run: as §1

Citrobacter diversus = experiment: MIC against Gram-negative bacteria: Citrobacter diversus; settings: for MIC against C. diversus: 96-well plate, 37° C., 10 h
How it was run: as §1

Moraxella catarrhalis = experiment: MIC against Gram-negative bacteria: Moraxella catarrhalis; settings: for MIC against M. catarrhalis: 96-well plate, 37° C., 10 h
How it was run: as §1

Proteus mirabilis = experiment: MIC against Gram-negative bacteria: Proteus mirabilis; settings: for MIC against P. mirabilis: 96-well plate, 37° C., 10 h
How it was run: as §1

Proteus vulgaris = experiment: MIC against Gram-negative bacteria: Proteus vulgaris; settings: for MIC against P. vulgaris: 96-well plate, 37° C., 10 h
How it was run: as §1

Serratia marcescens = experiment: MIC against Gram-negative bacteria: Serratia marcescens; settings: for MIC against S. marcescens: 96-well plate, 37° C., 10 h
How it was run: as §1

[1] = 10 h cultivation at 37° C., 5×10^5 CFU/mL, two-fold serial dilution
[2] = Pseudomonas aeruginosa, 5×10^5 CFU/mL
[3] = Klebsiella pneumonia, 5×10^5 CFU/mL
[4] = Enterobacter cloacae, 5×10^5 CFU/mL
[5] = Aeromonas hydrophila, 5×10^5 CFU/mL
[6] = Citrobacter diversus, 5×10^5 CFU/mL
[7] = Moraxella catarrhalis, 5×10^5 CFU/mL
[8] = Proteus mirabilis, 5×10^5 CFU/mL
[9] = Proteus vulgaris, 5×10^5 CFU/mL
[10] = Serratia marcescens, 5×10^5 CFU/mL

## PRT521 (CNCNSFGSKSFDCEESGQCWCQPGVTGKKCDRCAHGYFNFQEGGCTA; listed as Homo sapiens)
E. coli DH5α
  MIC: 50 µg/mL
E. coli BL21; 5×10^5 CFU/mL
  MIC against E. coli BL21: 25 µg/mL
Pseudomonas aeruginosa; 5×10^5 CFU/mL
  MIC against P. aeruginosa: 12.5 µg/mL
Klebsiella pneumonia; 5×10^5 CFU/mL
  MIC against K. pneumonia: 25 µg/mL
Enterobacter cloacae; 5×10^5 CFU/mL
  MIC against E. cloacae: 50 µg/mL
Aeromonas hydrophila; 5×10^5 CFU/mL
  MIC against A. hydrophila: 25 µg/mL
Citrobacter diversus; 5×10^5 CFU/mL
  MIC against C. diversus: 12.5 µg/mL
Moraxella catarrhalis; 5×10^5 CFU/mL
  MIC against M. catarrhalis: 25 µg/mL
Proteus mirabilis; 5×10^5 CFU/mL
  MIC against P. mirabilis: 50 µg/mL
Proteus vulgaris; 5×10^5 CFU/mL
  MIC against P. vulgaris: 25 µg/mL
Serratia marcescens; 5×10^5 CFU/mL
  MIC against S. marcescens: 12.5 µg/mL

## PRT805 (FGQNCSQDCPCHHGGQCDHVTGQCHCTAGYMGDRCQ; listed as Homo sapiens)
E. coli DH5α
  MIC: 12.5 µg/mL
E. coli BL21; E. coli BL21, 10 h cultivation at 37° C., 5×10^5 CFU/mL
  MIC (μg/mL) E. coli BL21: 50 µg/mL
Pseudomonas aeruginosa; P. aeruginosa, 10 h cultivation at 37° C., 5×10^5 CFU/mL
  MIC (μg/mL) P. aeruginosa: 12.5 µg/mL
Klebsiella pneumonia; K. pneumonia, 10 h cultivation at 37° C., 5×10^5 CFU/mL
  MIC (μg/mL) K. pneumonia: 12.5 µg/mL
Enterobacter cloacae; E. cloacae, 10 h cultivation at 37° C., 5×10^5 CFU/mL
  MIC (μg/mL) E. cloacae: 12.5 µg/mL
Aeromonas hydrophila; A. hydrophila, 10 h cultivation at 37° C., 5×10^5 CFU/mL
  MIC (μg/mL) A. hydrophila: 12.5 µg/mL
Citrobacter diversus; C. diversus, 10 h cultivation at 37° C., 5×10^5 CFU/mL
  MIC (μg/mL) C. diversus: 12.5 µg/mL
Moraxella catarrhalis; M. catarrhalis, 10 h cultivation at 37° C., 5×10^5 CFU/mL
  MIC (μg/mL) M. catarrhalis: 50 µg/mL
Proteus mirabilis; P. mirabilis, 10 h cultivation at 37° C., 5×10^5 CFU/mL
  MIC (μg/mL) P. mirabilis: 12.5 µg/mL
Proteus vulgaris; P. vulgaris, 10 h cultivation at 37° C., 5×10^5 CFU/mL
  MIC (μg/mL) P. vulgaris: 50 µg/mL
Serratia marcescens; S. marcescens, 10 h cultivation at 37° C., 5×10^5 CFU/mL
  MIC (μg/mL) S. marcescens: 12.5 µg/mL

## PRT1081 (APNPCEANGGQGPCSHLCLINYNRTVSCACPHLMKLHKDNTTCY; listed as Homo sapiens)
E. coli DH5α
  MIC: 25 µg/mL
E. coli BL21; [1]
  MIC E. coli BL21: 12.5 µg/mL
Pseudomonas aeruginosa; [1]
  MIC P. aeruginosa: 50 µg/mL
Klebsiella pneumonia; [1]
  MIC K. pneumonia: 12.5 µg/mL
Enterobacter cloacae; [1]
  MIC E. cloacae: 50 µg/mL
Aeromonas hydrophila; [1]
  MIC A. hydrophila: 12.5 µg/mL
Citrobacter diversus; [1]
  MIC C. diversus: 50 µg/mL
Moraxella catarrhalis; [1]
  MIC M. catarrhalis: 12.5 µg/mL
Proteus mirabilis; [1]
  MIC P. mirabilis: 25 µg/mL
Proteus vulgaris; [1]
  MIC P. vulgaris: 50 µg/mL
Serratia marcescens; [1]
  MIC S. marcescens: 12.5 µg/mL

## PRT1251 (CAFVCADCGSGHCDFQSGRCLCSPGVHGPHCN; listed as Homo sapiens)
E. coli DH5α
  MIC: 100 µg/mL
E. coli BL21; E. coli BL21, 5×10^5 CFU/mL
  MIC against E. coli BL21: 25 µg/mL
Pseudomonas aeruginosa; [2]
  MIC against P. aeruginosa: 50 µg/mL
Klebsiella pneumonia; [3]
  MIC against K. pneumonia: 25 µg/mL
Enterobacter cloacae; [4]
  MIC against E. cloacae: 12.5 µg/mL
Aeromonas hydrophila; [5]
  MIC against A. hydrophila: 25 µg/mL
Citrobacter diversus; [6]
  MIC against C. diversus: 50 µg/mL
Moraxella catarrhalis; [7]
  MIC against M. catarrhalis: 25 µg/mL
Proteus mirabilis; [8]
  MIC against P. mirabilis: 12.5 µg/mL
Proteus vulgaris; [9]
  MIC against P. vulgaris: 25 µg/mL
Serratia marcescens; [10]
  MIC against S. marcescens: 50 µg/mL

## PRT498 (CDCNPHGSVHGDCDRTSGQCVCRLGASGLRCDECEPRHILMETDCVS; listed as Homo sapiens)
E. coli DH5α
  MIC: 12.5 µg/mL
E. coli BL21; 5×10^5 CFU/mL
  MIC against E. coli BL21: 50 µg/mL
Pseudomonas aeruginosa; 5×10^5 CFU/mL
  MIC against P. aeruginosa: 12.5 µg/mL
Klebsiella pneumonia; 5×10^5 CFU/mL
  MIC against K. pneumonia: 12.5 µg/mL
Enterobacter cloacae; 5×10^5 CFU/mL
  MIC against E. cloacae: 12.5 µg/mL
Aeromonas hydrophila; 5×10^5 CFU/mL
  MIC against A. hydrophila: 12.5 µg/mL
Citrobacter diversus; 5×10^5 CFU/mL
  MIC against C. diversus: 25 µg/mL
Moraxella catarrhalis; 5×10^5 CFU/mL
  MIC against M. catarrhalis: 12.5 µg/mL
Proteus mirabilis; 5×10^5 CFU/mL
  MIC against P. mirabilis: 25 µg/mL
Proteus vulgaris; 5×10^5 CFU/mL
  MIC against P. vulgaris: 12.5 µg/mL
Serratia marcescens; 5×10^5 CFU/mL
  MIC against S. marcescens: 25 µg/mL

## PRT908 (LDNACLTNPCRNGGTCDLLTLTEYKCRCPPGWSGKSCQ; listed as Homo sapiens)
E. coli DH5α
  MIC: 50 µg/mL
E. coli BL21; E. coli BL21, 10 h cultivation at 37° C.
  MIC: 12.5 µg/mL
Pseudomonas aeruginosa; P. aeruginosa, 10 h cultivation at 37° C.
  MIC: 25 µg/mL
Klebsiella pneumonia; K. pneumonia, 10 h cultivation at 37° C.
  MIC: 50 µg/mL
Enterobacter cloacae; E. cloacae, 10 h cultivation at 37° C.
  MIC: 100 µg/mL
Aeromonas hydrophila; A. hydrophila, 10 h cultivation at 37° C.
  MIC: 25 µg/mL
Citrobacter diversus; C. diversus, 10 h cultivation at 37° C.
  MIC: 50 µg/mL
Moraxella catarrhalis; M. catarrhalis, 10 h cultivation at 37° C.
  MIC: 12.5 µg/mL
Proteus mirabilis; P. mirabilis, 10 h cultivation at 37° C.
  MIC: 25 µg/mL
Proteus vulgaris; P. vulgaris, 10 h cultivation at 37° C.
  MIC: 25 µg/mL
Serratia marcescens; S. marcescens, 10 h cultivation at 37° C.
  MIC: 25 µg/mL

## PRT1260 (DINECLVNNGGCDHFCRNTVGSFECGCRKGYKLLTDERTCQ; listed as Homo sapiens)
E. coli DH5α
  MIC: 25 µg/mL
E. coli BL21; E. coli BL21, 5×10^5 CFU/mL
  MIC against E. coli BL21: 50 µg/mL
Pseudomonas aeruginosa; [2]
  MIC against P. aeruginosa: 25 µg/mL
Klebsiella pneumonia; [3]
  MIC against K. pneumonia: 12.5 µg/mL
Enterobacter cloacae; [4]
  MIC against E. cloacae: 25 µg/mL
Aeromonas hydrophila; [5]
  MIC against A. hydrophila: 50 µg/mL
Citrobacter diversus; [6]
  MIC against C. diversus: 12.5 µg/mL
Moraxella catarrhalis; [7]
  MIC against M. catarrhalis: 50 µg/mL
Proteus mirabilis; [8]
  MIC against P. mirabilis: 12.5 µg/mL
Proteus vulgaris; [9]
  MIC against P. vulgaris: 50 µg/mL
Serratia marcescens; [10]
  MIC against S. marcescens: 25 µg/mL
